Activity calls are given as the source filed them. The rule behind the calls is not given here.
System: CCRIS mutagenicity, Ames/micronucleus/aberration tests
Assay: CCRIS mutagenicity studies
Settings: Test System: AMES SALMONELLA TYPHIMURIUM, Method: PREINCUBATION

Question: What does the source list for `CC1OC1C` (stereo not given)?
Answer: mutagenic call (Strain/Indicator: TA97, Metabolic Activation: HAMSTER, LIVER, S-9, AROCLOR 1254 (30%)): inactive; negative; mutagenic call (Strain/Indicator: TA97, Metabolic Activation: NONE): inactive; negative; mutagenic call (Strain/Indicator: TA97, Metabolic Activation: RAT, LIVER, S-9, AROCLOR 1254 (30%)): inactive; negative; mutagenic call (Strain/Indicator: TA98, Metabolic Activation: HAMSTER, LIVER, S-9, AROCLOR 1254 (30%)): inactive; negative; mutagenic call (Strain/Indicator: TA98, Metabolic Activation: NONE): inactive; negative; mutagenic call (Strain/Indicator: TA98, Metabolic Activation: RAT, LIVER, S-9, AROCLOR 1254 (30%)): inactive; negative; mutagenic call (Strain/Indicator: TA100, Metabolic Activation: HAMSTER, LIVER, S-9, AROCLOR 1254 (30%)): inactive; negative; mutagenic call (Strain/Indicator: TA100, Metabolic Activation: NONE): inactive; negative; mutagenic call (Strain/Indicator: TA100, Metabolic Activation: RAT, LIVER, S-9, AROCLOR 1254 (30%)): inactive; negative; mutagenic call (Strain/Indicator: TA1535, Metabolic Activation: HAMSTER, LIVER, S-9, AROCLOR 1254 (30%)): active; positive; mutagenic call (Strain/Indicator: TA1535, Metabolic Activation: RAT, LIVER, S-9, AROCLOR 1254 (30%)): active; positive; mutagenic call (Strain/Indicator: TA1537, Metabolic Activation: HAMSTER, LIVER, S-9, AROCLOR 1254 (30%)): inactive; negative; mutagenic call (Strain/Indicator: TA1537, Metabolic Activation: NONE): inactive; negative; mutagenic call (Strain/Indicator: TA1537, Metabolic Activation: RAT, LIVER, S-9, AROCLOR 1254 (30%)): inactive; negative

Question: With `Fc1cnc2ccc3ccccc3c2c1` as the molecule, how does the mutagenic call (Strain/Indicator: TA100, Metabolic Activation: RAT, LIVER, S-9, PHENOBARBITAL AND 5,6-BENZOFLAVONE) read?
Answer: Its mutagenic call is “active; positive”.
